Measurements from patent US4578392A, “Pyrazolo[1,5-a]pyridine derivatives and anti-allergic compositions containing them” (Kyorin Pharmaceutical Co., Ltd., priority 1983, dated 1986).

What was measured:
[1] = test system: SRS-A-induced component of anaphylactic bronchoconstriction; assay: Inhibitory activity on bronchial anaphylaxis in conscious guinea pigs (SRS-A preferentially involved in bronchoconstriction); format: in vivo, guinea pig; settings: Cavia porcellus; oral; actively sensitized (egg albumin) conscious guinea pigs, 10 mg/kg diphenhydramine intraperitoneally, inhaled antigen; read-out: ED75 (oral dose required to protect 75% of animals from respiratory distress caused by antigen challenge)
Experimental: The effect of the compounds of this invention on bronchial anaphylactic reaction in vivo was evaluated using conscious guinea pigs in a condition where SRS-A was preferentially involved in bronchoconstriction (Boot, J. R. et al.: Int. Arch. Allergy Appl. Immunol. 67, 340 (1982)). The guinea pigs which had been sensitized actively with egg albumin 3 to 4 weeks prior were given intraperitoneally with 10 mg/kg diphenhydramine. In these animals, inhaled antigen caused a marked respiratory distress due to bronchoconstriction. The ED75 values in Table 7 indicate the oral dose of test compound required to protect 75% of animals from respiratory distress caused by antigen challenge.

SRS-A = assay: Antagonistic action against SRS-A (SRS-A induced contraction of isolated guinea pig ileum); settings: 3 U/ml SRS-A, 5 minutes incubation, tripelennamine and atropine in Tyrode solution
Experimental: The anti-SRS-A action of the compounds of this invention was evaluated using isolated guinea pig ileum. Short segments of guinea pig terminal ileum were suspended in Tyrode solution containing tripelennamine (3×10^-7 g/ml) and atropine (3×10^-7 g/ml) and their contractions induced by an addition to the organ bath of 3 U/ml SRS-A* were recorded. The ileum was again contracted after incubation with test compounds for 5 minutes by adding the same amount of SRS-A. The anti-SRS-A action is given in Table 6 as IC50 values which indicate the concentration of test compound required to inhibit SRS-A induced ileal contraction by 50%.
*: The SRS-A used in this experiment was prepared from anaphylactic guinea pig lungs. One unit of SRS-A refers to the amount required to produce a contraction of the guinea pig ileum equal in amplitude to that produced by 5 ng histamine base.

Row | Antagonistic activity against SRS-A IC50 (SRS-A) | SMILES | ED75 [1]
1 |  | Cn1c(=O)c2[nH]cnc2n(C)c1=O [Aminophylline, reference compound] | 3.5 mg/kg
2 | 1.75 µg/mL | CC(C)c1nn2ccccc2c1C(O)C(C)C (centres unmarked) [Example 5, 2-Isopropyl-3-(1-hydroxy-2-methylpropyl)pyrazolo[1,5-a]pyridine] | 0.48 mg/kg
3 | 10.3 µg/mL | CC(C)c1nn2ccccc2c1C(O)C1CCCC1 (centres unmarked) [Example 6] | 
4 | 27 µg/mL | CCC(O)c1c(C(C)C)nn2ccccc12 (centres unmarked) [Example 8, 2-isopropyl-3-(1-hydroxypropyl)pyrazolo[1,5-a]pyridine] | 
5 | 26.8 µg/mL | CCCC(O)c1c(C(C)C)nn2ccccc12 (centres unmarked) [Example 9] | 
6 | 10.3 µg/mL | Cc1nn2ccccc2c1C(O)C(C)C (centres unmarked) [Example 10] | 
7 | 16.4 µg/mL | CCCc1nn2ccccc2c1C(O)CCC (centres unmarked) [Example 11] | 
8 | 4.9 µg/mL | COc1ccc2c(C(O)C(C)C)c(C(C)C)nn2c1 (centres unmarked) [Example 13] | 0.5 mg/kg
9 | 1.75 µg/mL | CCC(O)(c1c(C(C)C)nn2ccccc12)C(C)C (centres unmarked) [Example 15, 2-Isopropyl-3-(1-hydroxy-1-ethyl-2-methylpropyl)pyrazolo[1,5-a]pyridine] | 0.68 mg/kg
10 | 23.5 µg/mL | CC(C)c1nn2ccccc2c1C(C)(O)C(C)C (centres unmarked) [Example 16] | 
11 | 2.03 µg/mL | CCCC(O)(c1c(C(C)C)nn2ccccc12)C(C)C (centres unmarked) [Example 17] | 0.75 mg/kg
12 | 0.84 µg/mL | CCCCC(O)(c1c(C(C)C)nn2ccccc12)C(C)C (centres unmarked) [Example 18] | 0.5 mg/kg
13 | 2.14 µg/mL | CCCCCCC(O)(c1c(C(C)C)nn2ccccc12)C(C)C (centres unmarked) [Example 19] | 
14 | 1.51 µg/mL | C=CCC(O)(c1c(C(C)C)nn2ccccc12)C(C)C (centres unmarked) [Example 20] | 0.5 mg/kg
15 | 6.6 µg/mL | COC(c1c(C(C)C)nn2ccccc12)C(C)C (centres unmarked) [Example 21, 2-Isopropyl-3-(1-methoxy-2-methylpropyl)pyrazolo[1,5-a]pyridine] | 0.36 mg/kg
16 | 7.2 µg/mL | CCOC(c1c(C(C)C)nn2ccccc12)C(C)C (centres unmarked) [Example 22] | 
17 | 1.06 µg/mL | C=CCOC(c1c(C(C)C)nn2ccccc12)C(C)C (centres unmarked) [Example 23] | 0.5 mg/kg
18 | 5.09 µg/mL | CCCOC(c1c(C(C)C)nn2ccccc12)C(C)C (centres unmarked) [Example 24] | 
19 | 9.98 µg/mL | CCCCOC(c1c(C(C)C)nn2ccccc12)C(C)C (centres unmarked) [Example 25] | 

Row | Antagonistic activity against SRS-A IC50 (SRS-A) | SMILES | ED75 [1]
20 | 18.4 µg/mL | COC(c1c(C(C)C)nn2cc(C)ccc12)C(C)C (centres unmarked) [Example 26] | 
21 | 3.93 µg/mL | C=CCOC(c1c(C(C)C)nn2cc(C)ccc12)C(C)C (centres unmarked) [Example 27] | 
22 | 7.36 µg/mL | COc1ccc2c(C(OC)C(C)C)c(C(C)C)nn2c1 (centres unmarked) [Example 28] | 
23 | 3.84 µg/mL | C=CCOC(c1c(C(C)C)nn2cc(OC)ccc12)C(C)C (centres unmarked) [Example 29] | 
24 | 1.52 µg/mL | CCC(OC)(c1c(C(C)C)nn2ccccc12)C(C)C (centres unmarked) [Example 30] | 1 mg/kg
25 | 0.27 µg/mL | C=CCOC(CC)(c1c(C(C)C)nn2ccccc12)C(C)C (centres unmarked) [Example 31, 2-isopropyl-3-(1-allyloxy-1-ethyl-2-methylpropyl)pyrazolo[1,5-a]pyridine] | 0.5 mg/kg
26 | 0.52 µg/mL | C=CCOC(CCC)(c1c(C(C)C)nn2ccccc12)C(C)C (centres unmarked) [Example 32] | 2 mg/kg
27 | 2.36 µg/mL | C=CCOC(CCCC)(c1c(C(C)C)nn2ccccc12)C(C)C (centres unmarked) [Example 33] | 
28 | 7.33 µg/mL | CC(C)c1nn2ccccc2c1C(OCC1CO1)C(C)C (centres unmarked) [Example 34, 2-isopropyl-3-[1-(2,3-epoxypropoxy)-2-methylpropyl]pyrazolo[1,5-a]pyridine] | 
29 | 1.23 µg/mL | CCCOC(CC)(c1c(C(C)C)nn2ccccc12)C(C)C (centres unmarked) [Example 35, 2-Isopropyl-3-(1-ethyl-1-propoxy-2-methylpropyl)pyrazolo[1,5-a]pyridine] | 0.5 mg/kg
30 | 14.9 µg/mL | CC(O)COC(c1c(C(C)C)nn2ccccc12)C(C)C (centres unmarked) [Example 36, 2-Isopropyl-3-[1-(2-hydroxypropoxy)-2-methylpropyl]pyrazolo[1,5-a]pyridine] | 
31 | 14.7 µg/mL | COCc1c(C(C)C)nn2ccccc12 [Example 37, 2-Isopropyl-3-methoxymethylpyrazolo[1,5-a]pyridine] | 
32 | 2.8 µg/mL | CCCc1c(C(C)C)nn2ccccc12 [Example 39, 2-Isopropyl-3-propylpyrazolo[1,5-a]pyridine] | 
33 | 2.7 µg/mL | CC(C)=Cc1c(C(C)C)nn2ccccc12 [Example 40] | 
34 | 2.45 µg/mL | C=C(c1c(C(C)C)nn2ccccc12)C(C)C [Example 41] | 
35 | 0.44 µg/mL | CC=C(c1c(C(C)C)nn2ccccc12)C(C)C [Example 42] | 
36 | 2.7 µg/mL | CC(C)Cc1c(C(C)C)nn2ccccc12 [Example 43] | 
37 | 1.6 µg/mL | CC(C)c1nn2ccccc2c1C(C)C(C)C (centres unmarked) [Example 44] | 0.5 mg/kg
